Assay results: publication PMC3017119, “Structural Basis for the Recognition of Cellular mRNA Export Factor REF by Herpes Viral Proteins HSV-1 ICP27 and HVS ORF57” (PLoS Pathogens, 2011)
Where two headings read alike, the source gives them in different places. Where no end group is shown, it is not given here.

Legend:
Type in all cases: binding, murine
[1] = biological target: T1, REF^54–155 (REF2-I RRM domain) (Mus musculus, UniProt Q9JJW6); test: NMR chemical shift titration of 15N-REF^54–155 with viral peptides (dissociation constants)
T1 construct: made in house
Method: A separate titration of each peptide was carried out under the same sample conditions. Increasing amounts of peptide were added to a ^15N-REF^54–155 sample, achieving binding saturation whenever possible. Throughout these titrations amide chemical shift changes were monitored to assess the relative binding affinity of these peptides for REF and simultaneously map their binding sites. Estimates of dissociation constants were obtained for each peptide, and for the longer viral adaptor fragments (Table 2). […] A reduction in affinity was more pronounced in the L108A mutant, with the R107A mutation virtually abolishing the binding. […] This agrees with the NMR mapping data that a longer sequence from ORF57 (residues 103–120) is involved in REF binding. […] These latter two viral adaptors lack the signature Trp residue, and additionally in KSHV-ORF57 the Arg within the triad is replaced by Lys. As a further control, we also checked if binding of the viral peptides is specific to the RRM domain of REF, or if it can occur with RRMs of other proteins as well. The proteins SF2 [37] and 9G8 [38] bind TAP/p15 and have roles in splicing and mRNA export somewhat similar to that of REF/Aly. They also contain an RRM domain and are therefore structurally homologous to REF/Aly. To test if the same ICP27 motif could interact with these RRM domains, we added a 5-fold excess of WT ICP27^103–112 peptide to ^15N-labelled SF2 [37] and 9G8 [38]. […] These experiments confirmed that the recognition of the REF RRM domain by viral adaptor proteins is highly specific, and the isolated peptides ICP27^103–112, ICP27^103–110 and ORF57^103–120 are able to bind REF as efficiently as longer fragments of these viral proteins.
All experiments were carried out at 30°C on Bruker DRX600, DRX700 and Varian Inova 800 MHz spectrometers equipped with cryoprobes. The weighted chemical shift changes of amide signals δCS caused by complex formation were measured as [drawing 1] , where Δδ^H and Δδ^N were changes in proton and nitrogen chemical shifts, respectively. Standard triple-resonance experiments were used to assign spectra of ICP27^103–138, ORF57^8–120 and REF^54–155 in their free and bound states. Additionally, carbon-detection experiments (CON, CaCO, CbCaCO, CbCaCO(N), CbCaNCO) were used as an aid to the ORF57 assignment. Spectra were processed using NMRpipe and Topspin 2.1 (Bruker) and analysed using Sparky (University of California). Distance restraints obtained from 3D ^15N- and ^13C edited NOESY-HSQC experiments (τm 120 ms) and dihedral restraints from TALOS [51] were used in structure calculations by CYANA [52]. Additionally, intermolecular contacts were unambiguously identified using ^13C edited, ^12C-filtered NOESY-HSQC (τm 150 ms) spectra acquired on Varian Inova 800 MHz spectrometer. In this experiment only NOE crosspeaks between ^1H-^13C moieties of ^13C,^15N-labelled REF and ^1H(^12C) of unlabelled ICP27 peptide were observed, [54]. A final ensemble contained 20 structures with lowest target function values. Images were generated using Pymol (DeLano Scientific). For the REF - ICP27 complex, structure coordinates and experimental constraints have been deposited into the Protein Data Bank and chemical shifts in the BioMagResBank (access numbers 2kt5 and bmr16683 respectively). Other chemical shift assignments deposited in the BioMagResBank are: free ICP27^103–138 bmr16696, free REF^54–155 bmr16697, and ORF57^8–120 bmr16698 (both free and bound to REF^54–155).
Unlabelled synthetic peptides were obtained from Peptide Protein Research Ltd (UK). The synthetic peptide sequences used were from Varicella-zoster virus ORF4^108–119 (AAY57694), Kaposi's sarcoma-associated herpesvirus ORF57^100–110 (YP_001129410), Herpesvirus Saimiri ORF57^103–120 & 105–115 (CAC84353), Herpes simplex virus 1 ICP27^103–110 & 103–112 (AAF43147). […]

GST-REF2-I = GST-REF2-I pull down of 35S-radiolabelled ICP27 fragments; details: 35S-radiolabelled protein from rabbit reticulocytes, glutathione beads, RB100 buffer pH 7.5, 10 µg/ml RNAse A; SDS-PAGE, PhosphoImage
Excerpt: To confirm the position of REF-binding domains within ICP27 and ORF57 and to minimise the size of constructs for more detailed NMR mapping, a series of fragments derived from HSV-1 ICP27 were screened for binding to GST-REF2-I using pull down assays (Fig. 1). […] The REF-binding fragment of ORF57 aa 8–120 identified previously similarly interacted with the same fragments of REF (Fig. 1D).
Figure 1 Identification of regions for the interactions between REF and ICP27/ORF57. (A) Subdivision of ICP27, ORF57 and REF2-I in fragments. […] (C) Fusion of the ICP27^103–138 peptide to GST allows a specific pull down of REF, REF^1–155 (NM) and REF^54–155 (Δ53) and a very weak pull down of the REF^1–70 (N); no interaction is detected with the control Ras protein. (D) Same pull down assay as panel C but using GST fusion of ORF57 aa 8–120 in place of ICP27.
GST or GST protein fusions were first immobilised on 30 µl slurry glutathione-coated beads (GE Healthcare) before 8 µl ^35S-radiolabelled proteins synthesised in rabbit reticulocytes (Promega) were added to the binding reactions in RB100 buffer (25 mM HEPES pH 7.5/100 mM KOAc/10 mM MgCl2/1 mM DTT/0.05% Triton X-100/10% glycerol) in presence of 10 µg/ml RNAse A. Washed and eluted protein complexes were resolved on 15% SDS-PAGE stained with Coomassie blue and analysed by PhosphoImage. […]

[2] = tested on: REF^156–218 (REF2-I C-terminal domain); test: NMR 1H-15N correlation spectra of 15N-labelled REF^156–218 with added viral protein constructs; details: 2-fold excess of viral construct; 15N-HSQC

Substance: SCKTSWADRAREAAAQRR [HVS ORF57^103–120 V112A]
- Kd [1]: 156 ± 32 µM

Substance: SVWSALGARR [ICP27^103–112 R107A]
- Kd [1]: > 10000 µM

Substance: SCKTSAADRVREAAAQRR [HVS ORF57^103–120 W108A]
- Kd [1]: > 7500 µM

Substance: TGYARIERGHRR [VZV ORF4^108–119]
- Kd [1]: > 1000 µM

Substance: KTSWADRVREA [HVS ORF57^105–115]
- Kd [1]: > 1000 µM

Substance: SVASRLGARR [ICP27^103–112 W105A]
- Kd [1]: 550 ± 210 µM

Substance: ICP27^139–512: fragment aa 139–512 of HSV-1 ICP27
- Binding to GST-REF2-I in pull down (GST-REF2-I): no binding

Substance: SCKTSWADAVREAAAQRR [HVS ORF57^103–120 R111A]
- Kd [1]: 254 ± 50 µM

Substance: …SCKTSWADRVREAAAQRR [HVS ORF57^8–120, recombinant fragment aa 8–120 of Herpesvirus saimiri ORF57, with T7 and poly-His tags]
- Changes in 1H-15N correlation spectra of 15N-REF^156–218 upon addition [2]: No significant changes
- Kd ([1]; chemical shift changes in 1H-15N correlation spectra of 100 µM 15N-REF^54–155 versus increasing peptide concentration, fitted to standard equation, 30°C, NMR buffer 20 mM phosphate, 50 mM NaCl, 50 mM L-Arg/L-Glu/β-mercaptoethanol, 10 mM EDTA, pH 6.2, read-out: K D): 78 ± 12 µM

Substance: ICP27^1–103: fragment aa 1–103 of HSV-1 ICP27
- Binding to GST-REF2-I in pull down (GST-REF2-I): no binding

Substance: SVWSRAGARR [ICP27^103–112 L108A]
- Kd [1]: > 5000 µM

Substance: NRYGKKIKFGT [KSHV ORF57^100–110, reference compound]
- Kd [1]: > 100000 µM
